In the experiment the target is T1, somatostatin receptors (Rattus norvegicus, UniProt P30680).
T1 construct: endogenous in cells; host or cells: AR42J rat pancreatic tumor cell line, membrane preparation
The experiment is described as follows: Inhibition of binding of [125I-Tyr11]somatostatin-14 to AR42J rat pancreatic tumor cell membranes. To be noted: uncomplexed peptides, displacement of [125I-Tyr11]somatostatin-14 (0.5 nM). The procedure:
Inhibition of Binding of [^125 I-Tyr^11 ]somatostatin-14 to AR42J Rat Pancreatic Tumor Cell Membranes
The rat pancreatic tumor cell line AR42J which expresses the somatostatin receptor was cultured in Dulbecco's minimal essential media (DMEM) supplemented with 10% fetal bovine serum (FBS) and 8 mM glutamine in a humidified 5% CO2 atmosphere at 37° C. in T-flasks. Harvested cells were homogenized in cold 50 mM Tris-HCl buffer (pH 7.4) and the homogenate then centrifuged at 39,000 g for 10 min at 4° C. Pellets were washed once with buffer and then resuspended in an ice-cold solution of 10 mM Tris-HCl (pH 7.4). Equal aliquots of this cell membrane preparation were incubated with [^125 I-Tyr^11 ]somatostatin-14 (at a final concentration of 0.5 nM and 750,000 cpm/mL, at a specific activity of 2000 Ci/mmol, Amersham, Arlington Heights, Ill.) and peptide or peptide-rheniumcomplex at a final concentration of from 10^-11 M to 10^-6 M in a solution of 50 mM HEPES (pH 7.4) containing 1% bovine serum albumin (BSA), 5 mM MgCl2, Trasylol (200,000 International Units), bacitracin (0.02 mg/mL) and phenylmethylsulfonylfluoride (0.02 mg/mL) for 25 min at 30° C. Using a filtration manifold, this mixture was filtered through a polyethyleneimine-washed GC/F filter (Whatman, Maidstone, England), and the residue remaining on the filter washed thrice with 5 mL cold HEPES buffer. The filter and a sample of the filter washings were then counted in a gamma counter. To assess non-specific binding, the assay was performed in the presence of unlabeled somatostatin-14 at 200 nM. Data analysis including Hill plots of the data provided inhibition constants (see Bylund & Yamamura, "Methods of receptor binding", in Methods in Neurotransmitter Receptor Analysis, Yamamura et al., eds., Raven Press: New York, 1990).
For orientation: Loss of bound radioactivity is the signal in a displacement assay; it reports binding, not function.

Numbered stars: 1 amine (or outer) side, 2 acyl side, 3 side chain; on linkers, the order of the positions; unused ones are H or OH. Bridge positions count the residues as written; N and C are the ends. Square brackets hold non-standard residues; d marks the D form. Peptide text beside a SMILES is read from it. * marks the point of attachment. hhCys(CH2CO) = O=C([C@H](CCCSCC(=O)[*:3])N[*:1])[*:2]; X9 = CC(C)(S)CNCCN(CCCCC(=O)*)CC(C)(C)S; X3 = CC(C)(S)CNCCN(CCCCCN*)CC(C)(C)S; NMeF = CN[C@@H](Cc1ccccc1)C(=O)O; hCys = N[C@@H](CCS)C(=O)O

Drawing on patent publication US6017512A, “Radiolabeled peptides” (Diatide, Inc., priority 1997, dated 2000), this text covers Ki for ten compounds.

T1 sequence (P30680 whole entry): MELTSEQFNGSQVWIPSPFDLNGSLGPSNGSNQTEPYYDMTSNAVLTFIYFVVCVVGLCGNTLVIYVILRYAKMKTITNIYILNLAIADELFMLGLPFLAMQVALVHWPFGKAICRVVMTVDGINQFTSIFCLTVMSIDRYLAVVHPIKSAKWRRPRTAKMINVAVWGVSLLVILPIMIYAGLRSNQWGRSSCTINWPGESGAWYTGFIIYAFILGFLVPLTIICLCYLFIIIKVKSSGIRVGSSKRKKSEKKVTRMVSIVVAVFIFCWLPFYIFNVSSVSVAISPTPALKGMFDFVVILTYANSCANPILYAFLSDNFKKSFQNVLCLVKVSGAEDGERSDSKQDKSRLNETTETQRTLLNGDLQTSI

The compound `C[C@@H](O)[C@@H]1NC(=O)[C@H](CCCCN)NC(=O)[C@@H](Cc2c[nH]c3ccccc23)NC(=O)[C@H](Cc2ccccc2)NC(=O)[C@H](Cc2ccccc2)NC(=O)CSC[C@@H](C(=O)NCCCCCN(CCNCC(C)(C)S)CC(C)(C)S)NC(=O)[C@H](Cc2ccccc2)NC1=O` [CH2 CO.FFWD KTFC.[BAM]] ({CH2CO}-FF[dW]KTFC-X3; thioether N-7) displayed an inhibition constant Ki of 1.9 nM.
`C[C@@H](O)[C@@H]1NC(=O)[C@H](CCCCN)NC(=O)[C@@H](Cc2c[nH]c3ccccc23)NC(=O)[C@H](Cc2ccccc2)NC(=O)[C@H](Cc2ccccc2)NC(=O)CSCCC[C@@H](C(N)=O)NC(=O)[C@H](Cc2ccccc2)NC1=O` [CH2 CO.FFWD KTF.Hhc.amide] (FF[dW]KTF[hhCys(CH2CO)]-NH2; lactam N-7): the affinity corresponds to a Ki of 0.41 nM.
The figure for `CC(C)[C@@H]1NC(=O)[C@H](CCCCN)NC(=O)[C@@H](Cc2c[nH]c3ccccc23)NC(=O)[C@H](Cc2ccc(O)cc2)NC(=O)[C@H](CS)NC(=O)[C@H](CS)NC1=O` [cyclo.CYWD KVC, cyclo Cys--Tyr--D--Trp--Lys--Val--Cys] (cyclo(CY[dW]KVC)) is 0.43 nM.
The figure for `C[C@@H](O)[C@@H]1NC(=O)[C@H](CCCCN)NC(=O)[C@@H](Cc2c[nH]c3ccccc23)NC(=O)[C@H](Cc2ccccc2)NC(=O)[C@H](Cc2ccccc2)NC(=O)CSCC[C@@H](C(=O)O)NC(=O)[C@H](Cc2ccccc2)NC1=O` [CH2 CO.FFWD KTF.Hcy] ({CH2CO}-FF[dW]KTF[hCys]-OH; thioether N-7) is 9.8 nM; for `CC(C)[C@@H]1NC(=O)[C@H](CCCCN)NC(=O)[C@@H](Cc2c[nH]c3ccccc23)NC(=O)[C@H](Cc2ccc(O)cc2)NC(=O)[C@H](Cc2ccccc2)N(C)C(=O)[C@H](CCCCNC(=O)CCCCN(CCNCC(C)(C)S)CC(C)(C)S)NC1=O` [cyclo.(N--CH3)F.YWD KV.K.[BAT], cyclo.(N--CH3)Phe--Tyr--D--Trp--Lys--Val--Lys(BAT)] (cyclo([NMeF]Y[dW]KVK(X9))) it is 0.46 nM.
The figure for `C[C@@H](O)[C@@H]1NC(=O)[C@H](Cc2ccccc2)NC(=O)[C@H]([C@@H](C)O)NC(=O)[C@H](CCCCN)NC(=O)[C@@H](Cc2c[nH]c3ccccc23)NC(=O)[C@H](Cc2ccccc2)NC(=O)[C@H](Cc2ccccc2)NC(=O)[C@H](CC(N)=O)NC(=O)CSC[C@@H](C(=O)O)NC1=O` [CH2 CO.NFFWD KTFTC] ({CH2CO}-NFF[dW]KTFTC-OH; thioether N-9) is 2.7 nM; for `CC(C)[C@@H]1NC(=O)[C@H](CCCCN)NC(=O)[C@@H](Cc2c[nH]c3ccccc23)NC(=O)[C@H](Cc2ccc(O)cc2)NC(=O)[C@H](Cc2ccccc2)N(C)C(=O)[C@H](CCC(=O)NCCCCCN(CCNCC(C)(C)S)CC(C)(C)S)NC1=O` [cyclo.(N--CH3)F.YWD KV.E.[BAM], cyclo.(N--CH3)Phe--Tyr--D--Trp--Lys--Val--Glu(BAM)] (cyclo([NMeF]Y[dW]KVE(X3))) it is 2.6 nM.
`C[C@@H](O)[C@@H]1NC(=O)[C@H](CCCCN)NC(=O)[C@@H](Cc2c[nH]c3ccccc23)NC(=O)[C@H](Cc2ccc(O)cc2)NC(=O)[C@H](Cc2ccccc2)NC(=O)CSC[C@@H](C(N)=O)NC(=O)[C@H](Cc2ccccc2)NC1=O` [CH2 CO.FYWD KTFC.amide] ({CH2CO}-FY[dW]KTFC-NH2; thioether N-7): the inhibitory constant (Ki) stood at 0.16 nM.
The figure for `C[C@@H](O)[C@@H]1NC(=O)[C@H](CCCCN)NC(=O)[C@@H](Cc2c[nH]c3ccccc23)NC(=O)[C@H](Cc2ccccc2)NC(=O)[C@H](Cc2ccccc2)NC(=O)CSC[C@@H](C(N)=O)NC(=O)[C@H](Cc2ccccc2)NC1=O` [CH2 CO.FFWD KTFC.amide] ({CH2CO}-FF[dW]KTFC-NH2; thioether N-7) is 0.45 nM.
The figure for `C[C@@H](O)[C@@H]1NC(=O)[C@H](CCCCN)NC(=O)[C@@H](Cc2c[nH]c3ccccc23)NC(=O)[C@H](Cc2ccccc2)NC(=O)[C@H](Cc2ccccc2)NC(=O)CSC[C@@H](C(=O)O)NC(=O)[C@H](Cc2ccccc2)NC1=O` [CH2 CO.FFWD KTFC] ({CH2CO}-FF[dW]KTFC-OH; thioether N-7) is 4 nM.

Broadly, the Ki is the equilibrium dissociation constant of an inhibitor or competing ligand from its target. High values mean a looser hold on the target, low ones a stronger hold on the target.
